# Measured values: ChEMBL document CHEMBL2331301, “Structural analysis of the active sites of dihydrofolate reductase from two species of Candida uncovers ligand-induced conformational changes shared among species” (Bioorg Med Chem Lett, 2013)
# Active and inactive are the calls of the source. The rule behind the calls is not given here.
# Columns and labels:
# [1] = system: Nakaseomyces glabratus; experiment: Binding affinity to Candida glabrata DHFR at 1 mM incubated for 2 hrs by crystallographic analysis in presence of 1 mM NADPH
# [2] = biological target: T1, Dihydrofolate reductase (Candida albicans) (UniProt P22906); experiment: Binding affinity to Candida albicans DHFR at 1 mM incubated for 2 hrs by crystallographic analysis in presence of 1 mM NADPH
# T1 sequence (whole entry): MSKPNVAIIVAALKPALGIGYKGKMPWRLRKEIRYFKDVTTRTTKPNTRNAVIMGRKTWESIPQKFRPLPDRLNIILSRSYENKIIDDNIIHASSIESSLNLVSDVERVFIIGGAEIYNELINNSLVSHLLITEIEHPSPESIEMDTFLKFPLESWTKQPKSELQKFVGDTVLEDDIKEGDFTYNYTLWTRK
# [3] = Selectivity ratio of IC50 for human DHFR to Candida glabrata DHFR
# [4] = Selectivity ratio of IC50 for human DHFR to Candida albicans DHFR
# [5] = Inhibition of Candida glabrata DHFR; set-up: species or system Nakaseomyces glabratus
# [6] = biological target: T2, Dihydrofolate reductase (Candida albicans, UniProt P22906); experiment: Inhibition of Candida albicans DHFR
# T2 sequence (P22906 whole entry): T1 sequence (whole entry)
# [7] = biological target: T3, Dihydrofolate reductase (Homo sapiens, UniProt P00374); experiment: Inhibition of human DHFR
# T3 sequence (P00374 whole entry): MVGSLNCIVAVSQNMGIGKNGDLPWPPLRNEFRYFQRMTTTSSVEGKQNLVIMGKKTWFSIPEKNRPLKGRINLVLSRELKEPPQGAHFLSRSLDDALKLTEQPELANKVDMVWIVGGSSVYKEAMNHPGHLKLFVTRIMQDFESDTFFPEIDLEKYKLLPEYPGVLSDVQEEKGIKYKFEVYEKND
# [8] = system: Candida albicans; experiment: Antifungal activity against Candida albicans; type: functional
# [9] = system: Nakaseomyces glabratus; experiment: Antifungal activity against Candida glabrata; type: functional
Structure (SMILES),Activity [1],Activity [2],Ratio IC50 [3],Ratio IC50 [4],IC50 [5] [nM],IC50 [6] [nM],IC50 [7] [nM],MIC [8] [µg/mL],MIC [9] [µg/mL]
CCc1nc(N)nc(N)c1C#CC(C)c1cc(OC)cc(-c2ccncc2)c1 (configuration not stated),Active,Active,15,22,89,60,–,–,–
COc1cc(C(C)C#Cc2c(C)nc(N)nc2N)cc(N2CCOCC2)c1 (configuration not stated),–,–,20,19,20,21,–,–,–
CCc1nc(N)nc(N)c1C#CCc1cc(OC)cc(-c2cccc3cnccc23)c1,–,–,3.8,0.84,16,71,60,–,–
CCc1nc(N)nc(N)c1C#CCc1cc(OC)cc(-c2ccc3c(c2)OCCO3)c1,Active,Active,7.4,1.8,19,78,140,–,–
CCc1nc(N)nc(N)c1C#CC(C)c1cc(OC)cc(-c2cccc3cnccc23)c1 (configuration not stated),–,–,4.1,2.6,11,17,45,–,–
COc1cc(-c2ccc(C)cc2)cc(C(C)C#Cc2c(C)nc(N)nc2N)c1 (configuration not stated),Active,Active,–,–,0.6,–,–,1.5,1.5
CCc1nc(N)nc(N)c1C#CCc1cc(OC)ccc1OC,–,–,–,–,8.2,–,–,–,–
CCc1nc(N)nc(N)c1C#CC(C)c1cc(OC)cc(N2CCOCC2)c1 (configuration not stated),Active,–,11,11,22,23,250,–,–
CCc1nc(N)nc(N)c1C#CC(C)c1cc(OC)cc(-c2ccc3c(c2)OCCO3)c1 (configuration not stated),–,–,14,11,18,23,260,–,–
COc1cc(-c2ccncc2)cc(C(C)C#Cc2c(C)nc(N)nc2N)c1 (configuration not stated),–,–,15,25,97,61,–,–,–
COc1cc(C(C)(C)C#Cc2c(C)nc(N)nc2N)cc(OC)c1OC,–,–,26,9,11,33,–,–,–
